# Like-named read-outs stand apart in the source and are kept apart here.
# Key:
# [1] = test system: P. aeruginosa ATCC 27853; assay: microbe, parasite or virus in culture; settings: Pseudomonas aeruginosa
# Outline: (§1)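 CLSI broth microdilution (M07/M100); inoculum from 0.5 McFarland suspension diluted in CAMHB; MIC = lowest concentration with no visible growth or where OD600 stops falling.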
# [2] = test system: K. pneumoniae ATCC 700603; assay: microbe, parasite or virus in culture; settings: Klebsiella pneumoniae
# Outline: as §1
smiles,measurement,setting,value
"C[C@@H](O)[C@H]1C(=O)N2C(C(=O)O)=C(S[C@@H]3CN[C@H](C(=O)N(C)C)C3)[C@H](C)[C@H]12 [meropenem, reference compound]",MIC,"[1]; ATCC27853, CAMHB, mode of at least three replicates (RO7036668 one replicate)",0.5 µg/mL
same,MIC,"[1]; ATCC27853, read-out: MIC 100%, Study LGC277937, 100%",0.5 µg/mL
same,MIC,"[1]; ATCC27853, read-out: MIC 100%, Study LGC279800, 100%",0.25 µg/mL
same,MIC,"[1]; ATCC27853, read-out: MIC 100%, Study LGC281440, 100%",0.25 µg/mL
same,MIC,"[1]; ATCC27853, read-out: MIC 100%, Study LGC282160, 100%",0.5 µg/mL
same,MIC,"[1]; ATCC27853, read-out: MIC 100%, Study LGC282623, 100%",0.5 µg/mL
same,MIC,"[1]; ATCC27853, read-out: MIC 100%, Study LGC283932, 100%",0.5 µg/mL
same,MIC,"[1]; ATCC27853, read-out: MIC 100%, Study LGC284200, 100%",0.5 µg/mL
same,MIC,"[1]; ATCC27853, read-out: MIC 100%, Study LGC284879, 100%",0.5 µg/mL
same,MIC,"[1]; ATCC27853, read-out: MIC 100%, Study LGC285582, 100%",0.25 µg/mL
same,MIC,"[1]; ATCC27853, read-out: MIC 100%, Study LGC286210, 100%",0.5 µg/mL
same,MIC,"[1]; ATCC27853, read-out: MIC 100%, Study LGC293598, 100%",0.5 µg/mL
same,MIC,"[1]; ATCC27853, read-out: MIC 100%, Study LGC294355, 100%",0.5 µg/mL
same,MIC,"[1]; ATCC27853, read-out: MIC 100%, Study LGC295147, 100%",0.5 µg/mL
same,MIC,"[1]; ATCC27853, read-out: MIC 100%, Study LGC296813, 100%",0.5 µg/mL
same,MIC,"[1]; ATCC27853, read-out: MIC 100%, Study LGC299544, 100%",0.5 µg/mL
same,MIC,"[1]; ATCC27853, read-out: MIC 100%, Study LGC301026, 100%",0.25 µg/mL
same,MIC,"[1]; ATCC27853, read-out: MIC 100%, Study LGC308175, 100%",0.25 µg/mL
same,MIC,"[1]; ATCC27853, read-out: MIC 100%, Study ROC003, 100%",0.5 µg/mL
same,MIC,"[1]; ATCC27853, read-out: MIC 100%, Study ROC004, 100%",0.5 µg/mL
same,MIC,"[1]; ATCC27853, read-out: MIC 100%, Study ROC005, 100%",0.5 µg/mL
same,MIC,"[1]; ATCC27853, read-out: MIC 100%, Study ROC006, 100%",0.5 µg/mL
same,MIC,"[1]; ATCC27853, read-out: MIC 100%, Study ROC007, 100%",0.5 µg/mL
same,MIC,"[1]; ATCC27853, read-out: MIC 100%, Study ROC008, 100%",2 µg/mL
same,MIC,"[1]; ATCC27853, read-out: MIC 100%, Study ROC009, 100%",0.25 µg/mL
same,MIC,"[1]; ATCC27853, read-out: MIC 100%, Study ROC010, 100%",0.5 µg/mL
same,MIC,"[1]; ATCC27853, read-out: MIC 100%, Study ROC012, 100%",0.12 µg/mL
same,MIC,"[1]; ATCC27853, read-out: MIC 100%, Study ROC013, 100%",0.5 µg/mL
same,MIC,"[2]; ATCC700603, CAMHB, mode of at least three replicates (RO7036668 one replicate)",≤ 0.06 µg/mL
same,MIC,"[2]; ATCC700603, read-out: MIC 100%, Study LGC277937, 100%",≤ 0.06 µg/mL
same,MIC,"[2]; ATCC700603, read-out: MIC 100%, Study LGC279800, 100%",≤ 0.06 µg/mL
same,MIC,"[2]; ATCC700603, read-out: MIC 100%, Study LGC281440, 100%",≤ 0.06 µg/mL
same,MIC,"[2]; ATCC700603, read-out: MIC 100%, Study LGC282160, 100%",≤ 0.06 µg/mL
same,MIC,"[2]; ATCC700603, read-out: MIC 100%, Study LGC282623, 100%",≤ 0.06 µg/mL
same,MIC,"[2]; ATCC700603, read-out: MIC 100%, Study LGC283932, 100%",≤ 0.06 µg/mL
same,MIC,"[2]; ATCC700603, read-out: MIC 100%, Study LGC284200, 100%",≤ 0.06 µg/mL
same,MIC,"[2]; ATCC700603, read-out: MIC 100%, Study LGC284879, 100%",≤ 0.06 µg/mL
same,MIC,"[2]; ATCC700603, read-out: MIC 100%, Study LGC285582, 100%",≤ 0.06 µg/mL
same,MIC,"[2]; ATCC700603, read-out: MIC 100%, Study LGC286210, 100%",≤ 0.06 µg/mL
same,MIC,"[2]; ATCC700603, read-out: MIC 100%, Study LGC293598, 100%",≤ 0.06 µg/mL
same,MIC,"[2]; ATCC700603, read-out: MIC 100%, Study LGC294355, 100%",≤ 0.06 µg/mL
same,MIC,"[2]; ATCC700603, read-out: MIC 100%, Study LGC295147, 100%",≤ 0.06 µg/mL
same,MIC,"[2]; ATCC700603, read-out: MIC 100%, Study LGC296813, 100%",≤ 0.06 µg/mL
same,MIC,"[2]; ATCC700603, read-out: MIC 100%, Study LGC299544, 100%",≤ 0.06 µg/mL
same,MIC,"[2]; ATCC700603, read-out: MIC 100%, Study LGC301026, 100%",≤ 0.06 µg/mL
same,MIC,"[2]; ATCC700603, read-out: MIC 100%, Study LGC308175, 100%",≤ 0.06 µg/mL
same,MIC,"[2]; ATCC700603, read-out: MIC 100%, Study ROC003, 100%",≤ 0.06 µg/mL
same,MIC,"[2]; ATCC700603, read-out: MIC 100%, Study ROC004, 100%",≤ 0.06 µg/mL
same,MIC,"[2]; ATCC700603, read-out: MIC 100%, Study ROC005, 100%",≤ 0.06 µg/mL
same,MIC,"[2]; ATCC700603, read-out: MIC 100%, Study ROC006, 100%",≤ 0.06 µg/mL
same,MIC,"[2]; ATCC700603, read-out: MIC 100%, Study ROC007, 100%",≤ 0.06 µg/mL
same,MIC,"[2]; ATCC700603, read-out: MIC 100%, Study ROC008, 100%",0.12 µg/mL
same,MIC,"[2]; ATCC700603, read-out: MIC 100%, Study ROC009, 100%",0.06 µg/mL
same,MIC,"[2]; ATCC700603, read-out: MIC 100%, Study ROC010, 100%",≤ 0.06 µg/mL
same,MIC,"[2]; ATCC700603, read-out: MIC 100%, Study ROC012, 100%",≤ 0.06 µg/mL
same,MIC,"[2]; ATCC700603, read-out: MIC 100%, Study ROC013, 100%",≤ 0.06 µg/mL

# From publication PMC10794144, “A novel antibiotic class targeting the lipopolysaccharide transporter” (Nature, 2024)
